Measurements published in patent US20120258944A1, “ANTIOXIDANTS FOR USE IN THERAPY” (priority 2009, published 2012).

Legend:
[1] = test system: human umbilical vein endothelial cells (HUVEC); experiment: XTT in vitro toxicology test in human umbilical vein endothelial cells; format: cell-based; conditions: human
Protocol: As a negative control, cells incubated with medium containing 0.5% DMSO (corresponding to the highest DMSO concentration above) was used. As a positive control, cells were incubated in the presence of 20% EtOH.
After the incubation with the compounds, the wells were washed with PBS to remove substances which could interfere with the assay. 40 μl of fresh medium 200 without phenol red was added together with 10 μl XTT substance (according to the manufacturer's instructions). The plates were incubated for 8 hrs and the colour development was monitored by measuring the absorbance at 450 nm.
After incubation, the number of viable cells was assessed by observing the amount of metabolized XTT (2,3-bis[2-methoxy-4-nitro-5-sulphophenyl]-2H-tetrazolium-5-carboxyanilide inner salt).

[2] = two-phase model, N-acetylcysteine in the aqueous phase; cited from earlier work
kidney slice = experiment: Organ model TBARS experiment (TBA-MDA assay) in kidney slices
PLB985 cells = experiment: Resazurin based in vitro toxicology assay (TOX8); format: cell-based, human; conditions: PLB985, 3 hours, up to 120 μM
Protocol: The viability of cells treated with the compounds was also analyzed using a Resazurin based in vitro Toxicology Assay Kit (SigmaAldrich TOX8). Resazurin systems measure the metabolic activity of living cell. Resazurin in its oxidized form (blue) is reduced (red) by living cells and the amount of dye conversion is measured fluorometrically or spectrophotometrically indicating the degree of cytotoxicity.
1) 75 micro-l of PLB985 cells (1 million cells/ml) is mixed with 25 micro-l of Compounds 1, 2, 3 and D (480, 120, 15 and 0.48 micro-M) in a 96 well plate in duplicates. 2) 10 micro-L of Resazurin solution is added to each well and the plate is incubated at 37° C. for 3 hours. 3) Spectrophotometrical analysis is performed in plate reader at 600 and 690 nm.
FIG. 18: Cell viability of compounds in human PLB-985 cell line. Concentrations of compounds 120; 60; 30; 3.75; 0.12 and […] final concentrations. Measurement that indicates cell cytotoxicity (In vitro toxicology assay, TOX-8). The bars show increased level of cytotoxicity (analysis of absorbance of 600 nm substracted with absorbance 690 nm).

[3] = test system: human neutrophils and PBMCs, rat neutrophils and PBMCs, human PLB-985 cell line; experiment: Extracellular ROS, isoluminol luminescence, PMA or fMLF stimulated cells; format: cell-based; conditions: PMA or fMLF 30 ng/ml; compounds 120 to 0 microM; FIG. 1-4, 9-12, 14-17
Protocol: Validation was performed by stimulating cells with PMA and fMLF. When treated with the antioxidants, altered level of ROS production from the cells was measured using luminometry. Both intracellular and extracellular effect on ROS on the cells was analyzed using isoluminol (extracellular) and luminol (intracellular when co-administered with SOD and catalase) (Dahlgren et al. “Respiratory burst in human neutrophils”, Journal of Immunological Methods 232 1999; 3-14).
The isoluminol reagent buffer was made of HBSS buffer (with Ca^2+), Isoluminol and HRP.
1) Add 25 microL of antioxidants to assay plate to get proper concentrations in a total reaction volume of 100 micro-L. 2) Add 25 microL of PMA (120 ng/ml) and fMLF (120 ng/ml) to assay plate to get concentration of 30 ng/ml in a total reaction volume of 100 microL. 3) Add 50 microL of cell suspension (2 million cells/ml) to each well. Immediately after addition of cell suspension initiate luminescence measurement; the reaction starts at once when the cells are added to the assay plate. Measurement points are taken at 1-minute intervals for 25 minutes. Data is presented as AUC (Area Under Curve) by a summary of all collected measurements for each well.
FIG. 1: Extracellular ROS analyzed by Isoluminol induced luminescence in human Neutrophils. ROS induced with PMA (30 ng/ml) with 200, 100 or 0 microM NAC. Concentrations of compounds 120, 60, 30 and 0 microM final concentrations.
FIG. 9: Extracellular ROS analyzed by Isoluminol induced luminescence in rat Neutrophils. ROS induced with PMA (30 ng/ml) with 200, 100 or 0 microM NAC. Concentrations of compounds 120, 60, 30 and 0 microM final concentrations.
FIG. 11: Extracellular ROS analyzed by Isoluminol induced luminescence in human PLB-985 cell line. ROS induced with PMA (30 ng/ml) with 200, 100 or 0 microM NAC. Concentrations of compounds 120, 60, 30 and 0 microM final concentrations.

[4] = ABTS radical cation assay (TEAC) in aqueous PBS buffer; conditions: 6.08 micro-M
Protocol: In order to investigate its aqueous phase performance, we thought that it would be interesting to determine its Trolox Equivalent Antioxidant Capacity (TEAC) (Free Rad. Biol. Med. 1999, 26, 1231-1237) which has been used to quantify the antioxidant activity of biological fluids, extracts and pure compounds. The TEAC value is defined as the concentration of Trolox which has an equivalent antioxidant potential as a 1 mM solution of the compound under investigation (Free Rad. Biol. Med. 1996, 20, 933-956).
A 2,2′-azinobis(3-ethylbenzothiazoline-6 sulphonic acid radical cation (ABTS•+) assay was used to determine relative TEAC values. To a preformed solution of ABTS•+ in PBS buffer, pH 7.4, with an absorbance slightly above 0.7 were added various amounts (3-30 microM) of organoselenium compound 1, Trolox, sodium ascorbate and N-acetylcysteine. The absorbance at 734 inn was recorded immediately after mixing and then every minute for the next 8 minutes.
Antioxidant activity as determined by the capacity of the antioxidant to decolorize the ABTS^+ radical cation was determined essentially as described in the literature (Acc. Chem. Res. 1986, 19, 194-201). […] In a typical experiment, the antioxidant (1.52 micro-L of a 3.00 mM solution in MeOH or water; final concentration=6.08 micro-M) was syringed into 0.750 mL of the ABTS^+ radical cation solution. After initial mixing, the absorbance was recorded every minute for the next eight minutes.

CC1Cc2cc(O)ccc2[Se]1 (centres unmarked) [Compound 1]
relative toxicity among the compounds [1]: far less toxic than compounds 2 and 3
toxic concentration ([1]; 24 h): 500 µM
toxic concentration ([1]; 48 h): 500 µM
toxic concentration ([1]; 72 h): 200 µM
Inhibited Rate of Linoleic Acid Peroxidation (Rinh) [2]: 69 µM/h
potency as inhibitor of TBARS production compared with references (kidney slice): more potent inhibitors of TBARS production than Trolox and N-acetylcysteine
concentration able to inhibit 50% of the TBARS formation in the control incubation (kidney slice; re-oxygenation after Argon): sub-micromolar
cytotoxicity (PLB985 cells): no signs of cytotoxicity
antioxidative effect on extracellular ROS [3]: antioxidative effect on extra cellular ROS
TEAC value ([4]; PBS buffer pH 7.4, after 5 min): 1.6
number of ABTS radicals quenched by each molecule of the antioxidant ([4]; PBS buffer pH 7.4, versus reference antioxidants): clearly outperformed both sodium ascorbate and Trolox
